Test results from patent US20260356819A1, “OXOISOINDOLINYL-SUBSTITUTED […] DERIVATIVE AND USE THEREOF” (GLUETACS THERAPEUTICS (SHANGHAI) CO., LTD., priority 2023, published 2026).

Key:
Type in all cases: cell-based
Conditions in all cases: compounds at 50 nM and 500 nM
GSPT1 = biological target: T1, GSPT1 (Homo sapiens, UniProt P15170+Q96SW2); assay: Western blot degradation of GSPT1 in hPBMCs (24 h)
T1 construct: The supernatant was aspirated as the extracted total cell protein; endogenous in cells; host or cells: human peripheral blood mononuclear cells (hPBMCs)
Procedure, shortened: (§1)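 Compounds were tested at 50 nM and 500 nM on hPBMCs (1×10^6 cells/mL) for 24 h, alongside DMSO. Proteins were detected by Western blot after denaturation at 95 °C; remaining protein computed from normalised band grayscale.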

IKZF1 = biological target: T2, IKZF1 (Homo sapiens, UniProt Q13422+Q96SW2); assay: Western blot degradation of IKZF1 in hPBMCs (24 h)
T2 construct: The supernatant was aspirated as the extracted total cell protein; endogenous in cells; host or cells: human peripheral blood mononuclear cells (hPBMCs)
Procedure, shortened: as §1

IKZF2 = biological target: T3, IKZF2 (Homo sapiens, UniProt Q96SW2+Q9UKS7); assay: Western blot degradation of IKZF2 in hPBMCs (24 h)
T3 construct: The supernatant was aspirated as the extracted total cell protein; endogenous in cells; host or cells: human peripheral blood mononuclear cells (hPBMCs)
Procedure, shortened: as §1

CK1α = biological target: T4, CK1α (Homo sapiens, UniProt P48729+Q96SW2); assay: Western blot degradation of CK1α in hPBMCs (24 h)
T4 construct: The supernatant was aspirated as the extracted total cell protein; endogenous in cells; host or cells: human peripheral blood mononuclear cells (hPBMCs)
Procedure, shortened: as §1

IKZF3 = biological target: T5, IKZF3 (Homo sapiens, UniProt Q96SW2+Q9UKT9); assay: Western blot degradation of IKZF3 in hPBMCs (24 h)
T5 construct: The supernatant was aspirated as the extracted total cell protein; endogenous in cells; host or cells: human peripheral blood mononuclear cells (hPBMCs)
Procedure, shortened: as §1

WEE1 = biological target: T6, WEE1 (Homo sapiens, UniProt P30291+Q96SW2); assay: Western blot degradation of WEE1 in hPBMCs (24 h)
T6 construct: The supernatant was aspirated as the extracted total cell protein; endogenous in cells; host or cells: human peripheral blood mononuclear cells (hPBMCs)
Procedure, shortened: as §1

T3 sequence (Q9UKS7 whole entry): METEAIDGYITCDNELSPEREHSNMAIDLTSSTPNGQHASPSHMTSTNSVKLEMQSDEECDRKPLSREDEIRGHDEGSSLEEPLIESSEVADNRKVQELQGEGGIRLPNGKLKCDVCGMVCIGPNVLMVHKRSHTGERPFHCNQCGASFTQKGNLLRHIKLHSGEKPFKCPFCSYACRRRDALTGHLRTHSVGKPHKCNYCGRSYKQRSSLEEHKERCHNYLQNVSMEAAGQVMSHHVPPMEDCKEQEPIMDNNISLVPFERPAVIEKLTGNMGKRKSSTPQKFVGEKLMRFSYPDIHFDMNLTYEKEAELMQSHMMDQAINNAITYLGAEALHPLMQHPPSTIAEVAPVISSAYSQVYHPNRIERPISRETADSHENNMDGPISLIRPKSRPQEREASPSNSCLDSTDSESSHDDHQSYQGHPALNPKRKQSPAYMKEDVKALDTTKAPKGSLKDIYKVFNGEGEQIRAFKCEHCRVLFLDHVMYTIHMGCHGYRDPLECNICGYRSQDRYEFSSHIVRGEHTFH
T3 sequence (Q96SW2 whole entry): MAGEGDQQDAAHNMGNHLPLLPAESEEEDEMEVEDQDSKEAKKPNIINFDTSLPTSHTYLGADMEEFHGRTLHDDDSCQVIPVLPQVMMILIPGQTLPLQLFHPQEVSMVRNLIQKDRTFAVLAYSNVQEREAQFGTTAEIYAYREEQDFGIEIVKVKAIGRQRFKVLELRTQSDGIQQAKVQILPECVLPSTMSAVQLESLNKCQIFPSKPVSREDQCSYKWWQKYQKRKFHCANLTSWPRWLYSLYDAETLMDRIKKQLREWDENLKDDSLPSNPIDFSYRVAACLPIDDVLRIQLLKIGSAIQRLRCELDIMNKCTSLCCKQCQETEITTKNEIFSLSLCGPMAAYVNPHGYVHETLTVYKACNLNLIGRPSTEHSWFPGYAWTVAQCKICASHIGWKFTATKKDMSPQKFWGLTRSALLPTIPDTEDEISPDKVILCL
T3 sequence (Q16531 whole entry partner): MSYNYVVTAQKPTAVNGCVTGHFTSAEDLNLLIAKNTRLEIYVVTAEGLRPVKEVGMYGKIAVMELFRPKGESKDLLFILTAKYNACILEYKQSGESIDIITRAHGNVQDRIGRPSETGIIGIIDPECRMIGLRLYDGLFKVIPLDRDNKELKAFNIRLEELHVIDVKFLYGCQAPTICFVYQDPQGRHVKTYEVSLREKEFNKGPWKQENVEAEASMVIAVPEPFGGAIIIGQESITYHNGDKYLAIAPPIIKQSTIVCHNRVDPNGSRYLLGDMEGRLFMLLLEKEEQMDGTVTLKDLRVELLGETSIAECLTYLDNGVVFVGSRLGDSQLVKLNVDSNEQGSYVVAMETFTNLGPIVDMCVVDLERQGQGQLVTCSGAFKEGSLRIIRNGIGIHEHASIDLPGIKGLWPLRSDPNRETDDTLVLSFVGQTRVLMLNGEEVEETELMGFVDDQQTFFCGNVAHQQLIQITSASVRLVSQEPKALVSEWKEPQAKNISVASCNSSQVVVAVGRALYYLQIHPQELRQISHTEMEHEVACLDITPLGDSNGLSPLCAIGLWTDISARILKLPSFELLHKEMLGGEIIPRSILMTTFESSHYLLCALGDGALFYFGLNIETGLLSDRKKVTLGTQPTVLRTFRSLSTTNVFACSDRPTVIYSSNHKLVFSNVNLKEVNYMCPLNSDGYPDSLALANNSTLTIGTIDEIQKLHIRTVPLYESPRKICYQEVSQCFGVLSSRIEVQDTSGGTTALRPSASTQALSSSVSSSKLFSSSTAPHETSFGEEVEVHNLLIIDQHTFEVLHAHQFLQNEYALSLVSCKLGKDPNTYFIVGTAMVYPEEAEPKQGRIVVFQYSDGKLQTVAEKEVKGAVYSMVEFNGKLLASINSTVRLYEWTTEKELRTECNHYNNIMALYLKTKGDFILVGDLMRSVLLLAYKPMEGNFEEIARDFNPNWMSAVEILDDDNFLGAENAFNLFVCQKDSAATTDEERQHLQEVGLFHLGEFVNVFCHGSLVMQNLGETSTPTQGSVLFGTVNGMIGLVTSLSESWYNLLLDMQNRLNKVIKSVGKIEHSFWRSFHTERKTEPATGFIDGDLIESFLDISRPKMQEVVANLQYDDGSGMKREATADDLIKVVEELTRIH
T4 sequence (P48729 whole entry): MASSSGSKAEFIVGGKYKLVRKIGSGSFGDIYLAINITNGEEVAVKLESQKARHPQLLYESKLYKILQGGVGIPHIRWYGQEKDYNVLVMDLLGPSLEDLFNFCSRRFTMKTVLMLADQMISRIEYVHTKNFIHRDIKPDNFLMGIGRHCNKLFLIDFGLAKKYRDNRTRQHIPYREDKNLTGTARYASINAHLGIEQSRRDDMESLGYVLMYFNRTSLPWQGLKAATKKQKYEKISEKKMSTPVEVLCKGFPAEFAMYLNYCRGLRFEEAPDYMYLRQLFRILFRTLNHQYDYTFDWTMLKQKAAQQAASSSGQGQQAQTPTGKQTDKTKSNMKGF
T4 sequence (Q96SW2 whole entry): as the sequence (Q96SW2 whole entry) above
T4 sequence (Q16531 whole entry partner): as the sequence (Q16531 whole entry partner) above
T6 sequence (P30291 whole entry): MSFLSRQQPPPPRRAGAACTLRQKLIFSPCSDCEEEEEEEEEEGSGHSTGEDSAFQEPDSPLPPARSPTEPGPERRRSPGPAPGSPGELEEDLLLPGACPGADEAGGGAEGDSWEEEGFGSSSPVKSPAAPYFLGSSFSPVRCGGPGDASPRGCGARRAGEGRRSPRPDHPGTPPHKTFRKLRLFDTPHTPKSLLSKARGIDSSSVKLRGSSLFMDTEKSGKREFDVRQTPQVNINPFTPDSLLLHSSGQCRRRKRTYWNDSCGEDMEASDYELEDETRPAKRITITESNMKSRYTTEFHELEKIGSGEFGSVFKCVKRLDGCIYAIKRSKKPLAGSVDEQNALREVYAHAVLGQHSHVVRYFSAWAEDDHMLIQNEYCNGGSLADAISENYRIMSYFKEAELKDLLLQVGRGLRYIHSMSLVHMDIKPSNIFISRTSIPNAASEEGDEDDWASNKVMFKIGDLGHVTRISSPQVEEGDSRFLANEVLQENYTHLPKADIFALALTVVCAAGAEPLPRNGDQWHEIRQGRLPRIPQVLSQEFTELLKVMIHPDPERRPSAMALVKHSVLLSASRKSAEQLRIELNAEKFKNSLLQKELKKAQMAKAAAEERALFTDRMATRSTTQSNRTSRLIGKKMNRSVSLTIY
T6 sequence (Q96SW2 whole entry): as the sequence (Q96SW2 whole entry) above
T6 sequence (Q16531 whole entry partner): as the sequence (Q16531 whole entry partner) above
T2 sequence (Q13422 whole entry): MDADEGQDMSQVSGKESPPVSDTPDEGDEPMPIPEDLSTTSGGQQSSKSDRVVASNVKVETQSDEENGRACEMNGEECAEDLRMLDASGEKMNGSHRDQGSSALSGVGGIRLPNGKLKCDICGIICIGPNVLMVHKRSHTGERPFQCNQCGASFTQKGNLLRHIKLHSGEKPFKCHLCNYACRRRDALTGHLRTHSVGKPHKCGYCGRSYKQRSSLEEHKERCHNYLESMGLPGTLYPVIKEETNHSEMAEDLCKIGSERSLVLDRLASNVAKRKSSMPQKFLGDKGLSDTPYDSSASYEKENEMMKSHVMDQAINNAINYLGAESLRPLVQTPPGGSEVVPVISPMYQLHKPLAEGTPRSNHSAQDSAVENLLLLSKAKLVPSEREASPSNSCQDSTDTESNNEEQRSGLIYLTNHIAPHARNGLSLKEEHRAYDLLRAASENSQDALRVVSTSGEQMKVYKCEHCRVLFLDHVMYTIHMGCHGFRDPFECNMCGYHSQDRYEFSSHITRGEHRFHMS
T2 sequence (Q96SW2 whole entry): as the sequence (Q96SW2 whole entry) above
T2 sequence (Q16531 whole entry partner): as the sequence (Q16531 whole entry partner) above
T1 sequence (P15170 whole entry): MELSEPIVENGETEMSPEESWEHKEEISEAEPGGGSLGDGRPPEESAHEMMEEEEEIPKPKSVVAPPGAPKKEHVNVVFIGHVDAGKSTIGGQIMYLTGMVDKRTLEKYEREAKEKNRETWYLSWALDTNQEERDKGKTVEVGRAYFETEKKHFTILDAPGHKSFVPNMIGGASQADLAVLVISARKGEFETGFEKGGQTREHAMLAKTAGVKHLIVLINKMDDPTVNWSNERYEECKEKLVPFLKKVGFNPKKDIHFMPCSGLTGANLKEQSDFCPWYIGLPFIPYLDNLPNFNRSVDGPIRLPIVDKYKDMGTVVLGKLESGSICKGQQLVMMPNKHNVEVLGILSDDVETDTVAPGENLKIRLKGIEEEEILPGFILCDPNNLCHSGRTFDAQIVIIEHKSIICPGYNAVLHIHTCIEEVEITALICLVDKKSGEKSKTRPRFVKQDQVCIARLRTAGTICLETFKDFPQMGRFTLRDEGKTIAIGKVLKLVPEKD
T1 sequence (Q96SW2 whole entry): as the sequence (Q96SW2 whole entry) above
T1 sequence (Q16531 whole entry partner): as the sequence (Q16531 whole entry partner) above

SMILES | GSPT1 substrate protein remaining % (GSPT1) | IKZF1 substrate protein remaining % (IKZF1) | IKZF2 substrate protein remaining % (IKZF2) | CK1α substrate protein remaining % (CK1α) | IKZF3 substrate protein remaining % (IKZF3) | WEE1 substrate protein remaining % (WEE1)
O=C1CCN(N2Cc3cc(CN4CCN(c5noc6ccncc56)CC4)ccc3C2=O)C(=O)N1 [GT-07497, 1-(5-((4-(isoxazolo[4,5-c]pyridin-3-yl)piperazin-1-yl)methyl)-1-oxoisoindolin-2-yl)dihydropyrimidine-2,4(1H,3H)-dione] | A (0% ≤ substrate protein remaining % ≤80%) | A (0% ≤ substrate protein remaining % ≤80%) | A (0% ≤ substrate protein remaining % ≤80%) | A (0% ≤ substrate protein remaining % ≤80%) | B (80%< substrate protein remaining % ≤100%) | A (0% ≤ substrate protein remaining % ≤80%)
O=C1CCN(N2Cc3cc(CN4CCN(c5nsc6cc(F)ccc56)CC4)ccc3C2=O)C(=O)N1 [GT-07500, 1-(5-((4-(6-fluorobenzo[d]isothiazol-3-yl)piperazin-1-yl)methyl)-1-oxoisoindolin-2-yl)dihydropyrimidine-2,4(1H,3H)-dione] | A (0% ≤ substrate protein remaining % ≤80%) | A (0% ≤ substrate protein remaining % ≤80%) | B (80%< substrate protein remaining % ≤100%) | A (0% ≤ substrate protein remaining % ≤80%) | B (80%< substrate protein remaining % ≤100%) | A (0% ≤ substrate protein remaining % ≤80%)
O=C1CCN(N2Cc3cc(CN4CCN(c5c[nH]c6ncccc56)CC4)ccc3C2=O)C(=O)N1 [GT-07502, 1-(5-((4-(1H-pyrrolo[2,3-b]pyridin-3-yl)piperazin-1-yl)methyl)-1-oxoisoindolin-2-yl)dihydropyrimidine-2,4(1H,3H)-dione] | A (0% ≤ substrate protein remaining % ≤80%) | A (0% ≤ substrate protein remaining % ≤80%) | B (80%< substrate protein remaining % ≤100%) | A (0% ≤ substrate protein remaining % ≤80%) | B (80%< substrate protein remaining % ≤100%) | A (0% ≤ substrate protein remaining % ≤80%)
O=C1CCN(N2Cc3cc(CN4CCC(n5cnc6cc(F)ccc65)CC4)ccc3C2=O)C(=O)N1 [GT-07503, 1-(5-((4-(5-fluoro-1H-benzo[d]imidazol-1-yl)piperidin-1-yl)methyl)-1-oxoisoindolin-2-yl)dihydropyrimidine-2,4(1H,3H)-dione] | A (0% ≤ substrate protein remaining % ≤80%) | A (0% ≤ substrate protein remaining % ≤80%) | B (80%< substrate protein remaining % ≤100%) | A (0% ≤ substrate protein remaining % ≤80%) | B (80%< substrate protein remaining % ≤100%) | A (0% ≤ substrate protein remaining % ≤80%)
O=C1CCN(N2Cc3cc(CN4CCC(c5n[nH]c6cc(F)ccc56)CC4)ccc3C2=O)C(=O)N1 [GT-07508, 1-(5-((4-(6-fluoro-1H-indazol-3-yl)piperidin-1-yl)methyl)-1-oxoisoindolin-2-yl)dihydropyrimidine-2,4(1H,3H)-dione] | A (0% ≤ substrate protein remaining % ≤80%) | A (0% ≤ substrate protein remaining % ≤80%) | A (0% ≤ substrate protein remaining % ≤80%) | A (0% ≤ substrate protein remaining % ≤80%) | B (80%< substrate protein remaining % ≤100%) | A (0% ≤ substrate protein remaining % ≤80%)
